# Results as given in ChEMBL document CHEMBL1132820, “DNA minor groove interactions and the biological activity of 2,5-bis” (Bioorg Med Chem Lett, 2000).
# Legend:
# Rattus norvegicus [1] = assay: Number of mean cysts/g of lung tissue observed at 9-10 uM/kg/day dose of compound tested in vivo against Pneumocystis carinii pneumonia infected rats; type: functional
# Rattus norvegicus [2] = assay: Number of mean cysts/g of lung tissue observed at 0.9 uM/kg/day dose of compound tested in vivo against Pneumocystis carinii pneumonia infected rats; type: functional
structure (smiles),measurement,setting,value
N=C(NC1CCCCC1)c1ccc(-c2ccc(-c3ccc(C(=N)NC4CCCCC4)cc3)o2)cc1,PCP activity,Rattus norvegicus [1],0.02 cysts g-1
same,PCP activity,Rattus norvegicus [2],26.2 cysts g-1
N=C(NC1CCCC1)c1ccc(-c2ccc(-c3ccc(C(=N)NC4CCCC4)cc3)o2)cc1,PCP activity,Rattus norvegicus [1],0.03 cysts g-1
same,PCP activity,Rattus norvegicus [2],0.11 cysts g-1
N=C(NC1CCC1)c1ccc(-c2ccc(-c3ccc(C(=N)NC4CCC4)cc3)o2)cc1,PCP activity,Rattus norvegicus [1],0.05 cysts g-1
same,PCP activity,Rattus norvegicus [2],0.67 cysts g-1
